# No end group written: not given here.
# Target: T1, TREK-1 (Mus musculus, UniProt P97438)
# T1 sequence (P97438 1-426): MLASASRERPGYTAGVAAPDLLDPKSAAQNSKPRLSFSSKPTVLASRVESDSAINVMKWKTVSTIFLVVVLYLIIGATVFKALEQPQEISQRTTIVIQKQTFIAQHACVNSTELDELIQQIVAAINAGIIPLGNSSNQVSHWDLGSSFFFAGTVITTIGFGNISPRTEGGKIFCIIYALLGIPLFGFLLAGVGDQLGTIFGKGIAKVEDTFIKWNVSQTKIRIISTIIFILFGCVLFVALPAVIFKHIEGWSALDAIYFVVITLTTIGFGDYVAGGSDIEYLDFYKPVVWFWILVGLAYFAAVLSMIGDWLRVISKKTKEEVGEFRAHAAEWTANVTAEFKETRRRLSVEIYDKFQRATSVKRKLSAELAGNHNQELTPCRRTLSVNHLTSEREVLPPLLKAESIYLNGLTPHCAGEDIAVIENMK
# Assay: Association kinetics / internalization of 125I-spadin on COS-7 cells expressing TREK-1
# Assay type: cell-based
# Set-up: expressed in transfected cells; host or cells: COS-7 (DEAE-dextran transfection)
# Conditions: 37° C.
# Experimental: Cells, grown on 12 mm multiwell-dishes, were incubated with 0.2 nM ^125I-spadin for various times at 37° C. in an Earle's Tris-Hepes buffer (cell binding buffer). Incubations were terminated by washing cells twice with the binding buffer or with the same buffer containing 0.5 M NaCl, pH 4, for 2 min to remove non sequestrated radioactivity (acid-NaCl wash). Cells were harvested with 1 ml of 0.1 N NaOH and counted in a gamma-counter. Non specific binding was determined in the presence of 10 μM unlabeled spadin.
sequence,measurement,value
APLPRWSGPIGVSWGLR [spadin],time for cell-associated radioactivity to reach a plateau,≤ 30 min

# Source: patent publication US20120322060A1, “DIAGNOSIS AND MONITORING TREATMENT OF PSYCHIATRIC DISEASES WITH SPADIN AND RELATED METHODS” (CENTRE NATIONAL DE LE RECHERCHE SCIENTIFIQUE - CNRS -, priority 2011, published 2012)
